Measurements from patent publication US20030148264A1, “Phage displayed PDZ domain ligands” (GENENTECH, INC., priority 2001, published 2003).
Like-named read-outs stand apart in the source and are kept apart here. Values belong to the molecule of their own block, whether it stands above or below them. Where a SMILES comes first, the peptide text is derived from it. Where no end group is shown, it is not given here. [ ]: non-standard residue; d: D form. 2Nal = N[C@@H](Cc1ccc2ccccc2c1)C(=O)O

Experiments:
[1] = target: T1, hZO1 PDZ1 (Homo sapiens, UniProt Q07157); experiment: IC50 (nM) | hZO1 PDZ1 | 5 nM | B01-88 | Bio-GGWRWTTWL (SEQ ID NO 684) | 36 nM
T1 construct: Human ZO1 (NM_003257) PDZ1; GST; made in house
T1 sequence (Q07157 23-110): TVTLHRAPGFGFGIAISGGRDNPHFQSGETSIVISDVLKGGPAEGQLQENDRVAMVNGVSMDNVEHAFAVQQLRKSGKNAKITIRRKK
Procedure: (§1) Table printed on a drawing sheet, Fig. 12
Head of the field: IC50 (nM) | hZO1 PDZ1 | 5 nM | B01-88 | Bio-GGWRWTTWL (SEQ ID NO 684) | 36 nM
(§2) The patent's description of the figure: FIG. 12. IC50 values indicating binding affinities of various peptides to PDZ domains
(§3) First copying reader's note: The first column (three lines per block: protein, accession, PDZ domain) is treated as one cell spanning its block; an empty ruled row above the IC50/SD head is left out; #### cells are spreadsheet overflow marks as printed; several heads and cells are cut off at the left by the print (ample, eptide No, EQ ID NO).
Where the first naming reader finds the target: head: IC50 (nM) | hZO1 PDZ1 | 5 nM | B01-88

[2] = target: ERBIN PDZ domain (Homo sapiens, UniProt Q96RT1); experiment: Competition ELISA, ERBIN PDZ-GST binding to immobilized biotinylated peptide; set-up: made in house; host or cells: E. coli; details: for fold less potent than Ac-WETWV (SEQ ID NO:225): Alanine scanning of WETWV peptide
Sequence of ERBIN PDZ domain (Q96RT1 1258-1412): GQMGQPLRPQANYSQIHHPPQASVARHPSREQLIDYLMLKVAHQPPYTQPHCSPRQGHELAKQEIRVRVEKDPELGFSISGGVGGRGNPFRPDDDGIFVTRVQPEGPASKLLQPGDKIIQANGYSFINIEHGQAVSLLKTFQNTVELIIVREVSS
Procedure: Binding affinities of the peptides for the ERBIN PDZ domain were determined as IC50 values using competition ELISAs. […] Assay plates were prepared by coating Maxisorp plates overnight at 4° C. with 65 μl of a 2 μg/ml solution of neutravidin in PBS. The plates were then blocked through addition of 65 μl of a 1% solution of bovine serum albumin (BSA) in PBS for 1 hour at room temperature, then washed 10 times with PBS containing 0.05% Tween-20. 65 μl of the amino-terminally biotinylated peptide PDZ 501 (TGWETWV; SEQ ID NO:222) was then added at a concentration of 100 nM in PBS with 0.5% BSA and 0.05% Tween-20 and incubated for 1 hour at room temperature. Simultaneously, binding reactions consisting of serial dilutions of the test compounds in PBS with 0.5% BSA and 0.05% Tween-20 containing 2 μg/ml ERBIN PDZ-GST fusion protein were incubated for 1 hour at room temperature. The plate coated with the immobilized peptide was again washed 10 times before 65 μl of each binding reaction was added to a well and incubated for 15 minutes at room temperature. The plates were again washed 10 times before being developed by incubating for 30 minutes with a 1:1000 dilution of anti-mouse HRP conjugated antibody and a 1:2000 dilution of a mouse anti-GST antibody in PBS with 0.5% BSA and 0.05% Tween-20. The plates were washed 10 times, then incubated with 100 μl HRP substrate for 5 minutes and the color developed through addition of 100 μl of 1 M H3PO4. The plates were read at 450 nm and the absorption fit to a binding curve using a least squares fit.
Binding affinities of the peptides for the ERBIN PDZ domain were determined as IC50 values using competition ELISAs. […] Assay plates were prepared by coating microwell plates overnight with neutravidin. The plates were then blocked through addition of BSA, and then amino-terminally biotinylated WETWV (SEQ ID NO:225) was then bound to the plates. Simultaneously, binding reactions consisting of serial dilutions of the test peptides with ERBIN PDZ-GST fusion proteins were performed. The plate coated with the immobilized WETWV (SEQ ID NO:225) was extensively washed before adding each binding reaction to the wells and briefly incubated. After further washing, anti-mouse HRP conjugated antibody and a mouse anti-GST antibody were added. The plates were then developed with HRP substrate and H3PO4, and then read at 450 nm. The absorption fit to a binding curve using a least squares fit. Thus the ability of the various peptides to inhibit ERBIN PDZ domain from binding its cognate was measured. […]

[3] = target: ERBIN PDZ-GST fusion protein (aa. 1217-1371 of SEQ ID NO:201) (human) [GST: P08515]; experiment: competition ELISA: ERBIN PDZ-GST binding to immobilized biotin-WETWV
Sequence of ERBIN PDZ-GST fusion protein (aa. 1217-1371 of SEQ ID NO:201) (human) [GST: P08515] (P08515 whole entry, the tested form may be a part): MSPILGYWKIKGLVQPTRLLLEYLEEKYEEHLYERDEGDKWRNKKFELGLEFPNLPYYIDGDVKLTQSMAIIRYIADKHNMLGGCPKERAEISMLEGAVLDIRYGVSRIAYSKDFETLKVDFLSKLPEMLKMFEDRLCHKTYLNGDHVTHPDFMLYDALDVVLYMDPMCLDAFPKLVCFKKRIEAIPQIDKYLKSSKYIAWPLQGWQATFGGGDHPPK

[4] = target: T2, Erbin PDZ (Homo sapiens, UniProt Q96RT1); experiment: IC50 (nM) | Erbin PDZ | 2 nM | PDZ501 | Bio-Ac-GGWETWV (SEQ ID NO 687) | 37 nM
T2 construct: made in house; host or cells: E. coli
T2 sequence (Q96RT1 1258-1412): as the sequence (Q96RT1 1258-1412) above
Procedure: as §1, §2, §3
Where the first naming reader finds the target: head: IC50 (nM) | Erbin PDZ | 2 nM | PDZ501

[5] = target: GST-MAGI-3 PDZ 2 (aa. 584-707 of SEQ ID NO:200) (human) [GST: P08515]; experiment: competition ELISA: peptide blocks GST-PDZ binding to immobilized peptide
Sequence of GST-MAGI-3 PDZ 2 (aa. 584-707 of SEQ ID NO:200) (human) [GST: P08515] (P08515 whole entry): as the sequence (P08515 whole entry, the tested form may be a part) above

[6] = Substitutions for threonine at the −2 position and glutamate at the −3 position
[7] = Substitutions for tryptophan at the −1 position

fold less potent than H1N -GWETWV ([2]; ERBIN peptide truncations without N-terminal acylation): 11.5 fold
IC50 ([2]; ERBIN peptide truncations without N-terminal acylation, read-out: IC50): 16.5 µM
Molecule: CC(C)[C@H](NC(=O)[C@H](Cc1c[nH]c2ccccc12)NC(=O)[C@@H](NC(=O)[C@@H](N)CCC(=O)O)[C@@H](C)O)C(=O)O [H1N -ETWV] (H-ETWV-OH; C-terminus assumed)

IC50 [3]: 77.8 µM
fold less potent than Ac-GWETWV [3]: 78.7 fold
Molecule: Ac-WV (peptide)

IC50 [3]: 0.6 µM
fold less potent than Ac-WETWV [3]: 1.1 fold
Molecule: Ac-WETNapV (peptide)

IC50 [5]: 2 µM
Molecule: GCGCSWV (peptide)

IC50 [3]: 77.4 µM
fold less potent than Ac-GWETWV [3]: 81.5 fold
Molecule: Ac-TWY (peptide)

IC50 [5]: 0.3 µM
Molecule: HTQITWV (peptide)

IC50 ([2]; Small molecules that inhibit ERBIN PDZ domain from binding immobilized WETWV, read-out: IC50): 549 µM
Molecule: CC(C)C(NC(=O)C(Cc1cc2ccccc2[nH]1)NC(=O)c1cc2ccccc2[nH]1)C(=O)O (stereo not shown) [WV 66]

IC50 [5]: 200 µM
Molecule: HTQITKV (peptide)

IC50 [1]: 21400 nM
Molecule: Ac-ERIWFV [29 | 01-24, SEQ ID NO 668 NAC-ERIWFV]

More lines, now with the values behind:

Molecule: Ac-KSTWL [23 | 01-03, SEQ ID NO 662 N^AC-KSTWL]
IC50 [1]: 5310 nM

Molecule: Ac-WEVWV [Ac-WEVWV]
IC50 [2]: 4.8 µM
fold less potent than Ac-WETWV [2, 6]: 9.8 fold

Molecule: Ac-WGWTTWL [12 | 01-30, EQ ID NO 651 N^AC-WGWTTWL]
IC50 [1]: 47 ± 4 nM
IC50 [4]: 35500 nM

Molecule: Ac-WRHTTWL [11 | 01-29, EQ ID NO 650 N^AC-WRHTTWL]
IC50 [1]: 35 ± 5 nM
IC50 [4]: 52400 nM

Molecule: CC(=O)N[C@@H](Cc1c[nH]c2ccccc12)C(=O)N[C@@H](CCC(=O)O)C(=O)N[C@H](C(=O)N[C@@H](Cc1ccc2ccccc2c1)C(=O)N[C@H](C(=O)O)C(C)C)[C@@H](C)O [Ac-WETNapV] (Ac-WET[2Nal]V-OH; C-terminus assumed)
IC50 [2]: 0.6 µM
fold less potent than Ac-WETWV [2, 7]: 1.1 fold

Molecule: Ac-WETYV [Ac-WETYV]
IC50 [2]: 42.5 µM
fold less potent than Ac-WETWV [2, 7]: 86.7 fold

Molecule: Ac-WESWV [Ac-WESWV]
IC50 [2]: 2.5 µM
fold less potent than Ac-WETWV [2, 6]: 5.2 fold

Molecule: Ac-RETWL [22 | 01-02, SEQ ID NO 661 N^AC-RETWL]
IC50 [1]: 28600 nM
IC50 [4]: 39700 nM

Molecule: Ac-WETAV [Ac-WETAV]
IC50 [2]: 34 µM
fold less potent than Ac-WETWV (SEQ ID NO:225) [2]: 69.3 fold
fold less potent than Ac-WETWV [2, 7]: 69.3 fold

Molecule: Ac-AETWV [Ac-AETWV]
IC50 [2]: 4 µM
fold less potent than Ac-WETWV (SEQ ID NO:225) [2]: 8.2 fold

Molecule: H1N -TWV (peptide)
IC50 [3]: 105 µM
fold less potent than H1N -GWETWV [3]: 73.6 fold

Molecule: Ac-WETFV [Ac-WETFV]
IC50 [2]: 14.5 µM
fold less potent than Ac-WETWV [2, 7]: 295 fold

Molecule: Ac-KTSTSYV [14 | 01-97, SEQ ID NO 653 N^AC-KTSTSYV]
IC50 [1]: 2030 nM

Molecule: Ac-WEAWV [Ac-WEAWV]
IC50 [2]: 12.4 µM
fold less potent than Ac-WETWV (SEQ ID NO:225) [2]: 25.3 fold

Molecule: Ac-WATWV [Ac-WATWV]
IC50 [2]: 14.8 µM
fold less potent than Ac-WETWV (SEQ ID NO:225) [2]: 30.3 fold

Molecule: Ac-YSRSQYV [16 | 01-95, SEQ ID NO 655 N^AC-YSRSQYV]
IC50 [1]: 4620 nM
